From article PMC12794142 (2025)

Legend:
[1] = tested on: AT11 (DNA, G4) TGGTGGTGGTTGTTGTGGTGGTGGTGGT; assay: CD melting at 262 nm; conditions: 70 mM KCl, 20 mM potassium phosphate, pH 7.0, 2 μM DNA, 20 μM ligand
[2] = tested on: AT11 (DNA, G4) TGGTGGTGGTTGTTGTGGTGGTGGTGGT; assay: 1H NMR titration, NOESY; conditions: 70 mM KCl, 20 mM potassium phosphate; pH 7.0, 90%/10% H2O/D2O, DMSO up to 3%
[3] = tested on: AT11 (DNA, G4) TGGTGGTGGTTGTTGTGGTGGTGGTGGT; assay: fluorescence titration (ligand intrinsic emission); conditions: 70 mM KCl, 20 mM potassium phosphate; for K d: per site
[4] = tested on: AT11 (DNA, G4) TGGTGGTGGTTGTTGTGGTGGTGGTGGT; assay: 1H NMR titration; conditions: 70 mM KCl, 20 mM potassium phosphate; pH 7.0, 90%/10% H2O/D2O; 3'-end G-quartet preferred

Row | ΔT m ([1]; additional inflection at 87 °C) | K d ([3]; pH 7.0, 20 °C, 2 μM ligand) [nM] | binding [4] | ΔT m [1] | K d ([3]; pH 7.0, 20 °C, 2 μM ligand, average over multiple binding events) [nM] | binding ([3]; pH 7.0, 20 °C, 2 μM ligand, alternating trend, not fittable) | K d [3] [nM] | SMILES | binding [2]
1 | +3 °C | 1000 ± 700 |  |  |  |  |  | COc1cc2c(cc1OC)-c1c3c(cc4c1[C@H](C2)N(C)CC4)OCO3 | yes
2 |  |  | yes | +1 °C | 1700 ± 300 |  |  | COc1ccc2c(c1O)-c1c3c(cc4c1[C@H](C2)N(C)CC4)OCO3 | 
3 |  |  |  | +1 °C |  | yes |  | CN1Cc2c(ccc3c2OCO3)[C@@H]2[C@H]1c1cc3c(cc1C[C@@H]2O)OCO3 | yes
4 |  |  |  | +1 °C |  |  | 2000 ± 400 | CC[C@H]1C[C@@H]2C[C@H]3c4[nH]c5ccc(OC)cc5c4CCN(C2)[C@@H]13 | yes
